Experimental data as given in PubChem BioAssay (NCI).
Several values for one entry are separate records, joined by “and”; a condition that tells them apart may be missing. Equal entries are not always repeated.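 GI50: concentration for 50% inhibition of growth. TGI marks complete inhibition of growth.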

How the values were obtained:
Experiment in all cases: NCI anticancer screen, dose series, 384-well format
MDA-MB-231 breast = tested on: MDA-MB-231 breast
SF-268 CNS = tested on: SF-268 CNS
RXF 393 renal = tested on: RXF 393 renal
DU-145 prostate = tested on: DU-145 prostate
OVCAR-4 ovarian = tested on: OVCAR-4 ovarian
MALME-3M melanoma = tested on: MALME-3M melanoma
ACHN renal = tested on: ACHN renal
MDA-MB-435 melanoma = tested on: MDA-MB-435 melanoma
HL-60(TB) leukemia = tested on: HL-60(TB) leukemia
CAKI-1 renal = tested on: CAKI-1 renal
K-562 leukemia = tested on: K-562 leukemia
COLO 205 colon = tested on: COLO 205 colon
SK-MEL-5 melanoma = tested on: SK-MEL-5 melanoma
IGROV1 ovarian = tested on: IGROV1 ovarian
NCI-H322M lung = tested on: NCI-H322M lung
KM12 colon = tested on: KM12 colon
SF-295 CNS = tested on: SF-295 CNS
SK-OV-3 ovarian = tested on: SK-OV-3 ovarian
NCI-H226 lung = tested on: NCI-H226 lung
U251 glioblastoma = tested on: U251 glioblastoma
A498 renal = tested on: A498 renal
HCT-15 colon = tested on: HCT-15 colon
PC-3 prostate = tested on: PC-3 prostate
HCT-116 colon = tested on: HCT-116 colon
T-47D breast = tested on: T-47D breast
HT29 colon = tested on: HT29 colon
MCF7 breast = tested on: MCF7 breast
EKVX NSCLC = tested on: EKVX NSCLC
OVCAR-3 ovarian = tested on: OVCAR-3 ovarian
A549 NSCLC = tested on: A549 NSCLC
BT-549 breast = tested on: BT-549 breast
SNB-75 CNS = tested on: SNB-75 CNS
SNB-19 CNS = tested on: SNB-19 CNS
MDA-MB-468 breast = tested on: MDA-MB-468 breast
M14 melanoma = tested on: M14 melanoma
UO-31 renal = tested on: UO-31 renal
SK-MEL-2 melanoma = tested on: SK-MEL-2 melanoma
TK-10 renal = tested on: TK-10 renal
HS 578T breast = tested on: HS 578T breast
SF-539 CNS = tested on: SF-539 CNS
SK-MEL-28 melanoma = tested on: SK-MEL-28 melanoma
SN12C renal = tested on: SN12C renal
HOP-92 NSCLC = tested on: HOP-92 NSCLC
UACC-257 melanoma = tested on: UACC-257 melanoma
SW-620 colon = tested on: SW-620 colon
NCI-H23 lung = tested on: NCI-H23 lung
UACC-62 melanoma = tested on: UACC-62 melanoma
NCI-H522 lung = tested on: NCI-H522 lung
786-0 renal = tested on: 786-0 renal
NCI-H460 NSCLC = tested on: NCI-H460 NSCLC
OVCAR-8 ovarian = tested on: OVCAR-8 ovarian
HOP-62 NSCLC = tested on: HOP-62 NSCLC
OVCAR-5 ovarian = tested on: OVCAR-5 ovarian

For `COc1ccc(C2=N[C@@H](c3ccc(Cl)cc3)[C@@H](c3ccc(Cl)cc3)N2C(=O)N2CCNC(=O)C2)c(OC(C)C)c1`, the GI50 (MDA-MB-231 breast) was 17 µM and 14.1 µM and 12.9 µM, the TGI (MDA-MB-231 breast) was 30.8 µM and 27.1 µM and 25.6 µM and the GI50 (SF-268 CNS) was 16.7 µM and 13.4 µM and 10.7 µM. The TGI (SF-268 CNS) was 30.4 µM and 26.4 µM and 22.6 µM, the TGI (RXF 393 renal) was 24.8 µM and 16.3 µM and 14.9 µM and the GI50 (DU-145 prostate) was 15.2 µM and 15.7 µM. For the same compound, the TGI (DU-145 prostate) was 28.6 µM and 29.3 µM and 28.7 µM, the GI50 (OVCAR-4 ovarian) was 14 µM and 14.2 µM and 13.8 µM and the TGI (OVCAR-4 ovarian) was 27 µM and 27.4 µM and 26.8 µM. For the same compound, the GI50 (MALME-3M melanoma) was 8.12 µM and 2.75 µM and 5.41 µM, the TGI (MALME-3M melanoma) was 20.3 µM and 19.3 µM and 19.7 µM and the TGI (ACHN renal) was 24.2 µM and 11.4 µM and 11.2 µM. The GI50 (MDA-MB-435 melanoma) was 13.8 µM and 16.4 µM and 15.8 µM, the TGI (MDA-MB-435 melanoma) was 26.8 µM and 30.1 µM and 29.4 µM and the GI50 (HL-60(TB) leukemia) was 2.99 µM and 3.06 µM and 3.55 µM. The TGI (HL-60(TB) leukemia) was 12.9 µM and 15.7 µM and 15.8 µM, the TGI (CAKI-1 renal) was 21.1 µM and 11.9 µM and 12.4 µM and the GI50 (K-562 leukemia) was 11.4 µM and 4.93 µM and 2.55 µM. The TGI (K-562 leukemia) was 23.9 µM and 20.3 µM and 17 µM, the GI50 (COLO 205 colon) was 15.9 µM and 16.8 µM and 14.9 µM and the TGI (COLO 205 colon) was 29.5 µM and 30.7 µM and 28.3 µM. For the same compound, the GI50 (SK-MEL-5 melanoma) was 14.3 µM and 8.52 µM and 7.04 µM, the TGI (SK-MEL-5 melanoma) was 27.5 µM and 20.6 µM and 20 µM and the GI50 (IGROV1 ovarian) was 13.5 µM and 10.9 µM and 7.76 µM. The TGI (IGROV1 ovarian) was 26.5 µM and 23 µM and 21 µM, the GI50 (NCI-H322M lung) was 19.3 µM and 17.7 µM and 13.7 µM and the TGI (NCI-H322M lung) was 33.6 µM and 31.6 µM and 26.7 µM. For the same compound, the TGI (KM12 colon) was 27.8 µM and 12.7 µM and 12.3 µM, the GI50 (SF-295 CNS) was 15.3 µM and 14.5 µM and 12.9 µM and the TGI (SF-295 CNS) was 28.7 µM and 27.7 µM and 25.7 µM. For the same compound, the GI50 (SK-OV-3 ovarian) was 19.7 µM and 16 µM and 12.9 µM, the TGI (SK-OV-3 ovarian) was 34 µM and 29.6 µM and 25.7 µM and the TGI (NCI-H226 lung) was 23.7 µM and 2.47 µM and 3.4 µM. The GI50 (U251 glioblastoma) was 14.7 µM and 13.7 µM and 10.9 µM, the TGI (U251 glioblastoma) was 28 µM and 26.7 µM and 22.9 µM and the TGI (A498 renal) was 23.1 µM and 13.1 µM and 13.5 µM. For the same compound, the GI50 (HCT-15 colon) was 16 µM and 16.1 µM and 14 µM, the TGI (HCT-15 colon) was 29.7 µM and 30.1 µM and 27.1 µM and the GI50 (PC-3 prostate) was 12.5 µM and 13 µM and 12.6 µM. For the same compound, the TGI (PC-3 prostate) was 25.1 µM and 25.8 µM and 25.2 µM, the TGI (HCT-116 colon) was 24 µM and 14.5 µM and 12.8 µM and the GI50 (T-47D breast) was 17 µM and 14.7 µM and 13.8 µM. The TGI (T-47D breast) was 30.7 µM and 28 µM and 26.7 µM, the GI50 (HT29 colon) was 11.8 µM and 13.4 µM and 10.5 µM and the TGI (HT29 colon) was 24.2 µM and 26.3 µM and 22.3 µM. For the same compound, the GI50 (MCF7 breast) was 3.43 µM and 1.73 µM and 0.718 µM, the TGI (MCF7 breast) was 16.8 µM and 8.38 µM and 8.52 µM and the GI50 (EKVX NSCLC) was 15 µM and 15.3 µM and 14.6 µM. The TGI (EKVX NSCLC) was 28.3 µM and 28.7 µM and 27.8 µM, the GI50 (OVCAR-3 ovarian) was 12.8 µM and 12 µM and 12.1 µM and the TGI (OVCAR-3 ovarian) was 25.5 µM and 24.6 µM. The GI50 (A549 NSCLC) was 14.6 µM and 2.28 µM and 2.23 µM, the TGI (A549 NSCLC) was 27.8 µM and 14.7 µM and 13.8 µM and the GI50 (BT-549 breast) was 16.6 µM and 16.9 µM. The TGI (BT-549 breast) was 30.3 µM and 30.2 µM and 30.6 µM, the GI50 (SNB-75 CNS) was 13.3 µM and 11.9 µM and 11.6 µM and the TGI (SNB-75 CNS) was 26.1 µM and 24.2 µM and 23.9 µM. For the same compound, the GI50 (SNB-19 CNS) was 14.3 µM and 14.6 µM, the TGI (SNB-19 CNS) was 27.4 µM and 27.9 µM and the GI50 (MDA-MB-468 breast) was 12.4 µM and 11 µM and 11.5 µM. For the same compound, the TGI (MDA-MB-468 breast) was 24.9 µM and 23 µM and 23.7 µM, the GI50 (M14 melanoma) was 13.1 µM and 10 µM and 11.1 µM and the TGI (M14 melanoma) was 25.8 µM and 21.6 µM and 23.1 µM. For the same compound, the GI50 (UO-31 renal) was 11.2 µM and 4.63 µM and 5.1 µM, the TGI (UO-31 renal) was 23.3 µM and 15.8 µM and 16 µM and the GI50 (SK-MEL-2 melanoma) was 18.7 µM and 18.1 µM and 14.5 µM. The TGI (SK-MEL-2 melanoma) was 32.7 µM and 32.1 µM and 27.7 µM, the GI50 (TK-10 renal) was 15.1 µM and 13.5 µM and 11.3 µM and the TGI (TK-10 renal) was 28.5 µM and 26.4 µM and 23.5 µM. For the same compound, the GI50 (HS 578T breast) was 13.4 µM and 12.8 µM and 12.2 µM, the TGI (HS 578T breast) was 26.2 µM and 25.5 µM and 24.7 µM and the GI50 (SF-539 CNS) was 16.1 µM and 13.7 µM and 10.6 µM. The TGI (SF-539 CNS) was 29.6 µM and 26.8 µM and 22.4 µM, the GI50 (SK-MEL-28 melanoma) was 15.6 µM and 18.7 µM and 18 µM and the TGI (SK-MEL-28 melanoma) was 29 µM and 32.9 µM and 32 µM. For the same compound, the GI50 (SN12C renal) was 15.5 µM and 17.2 µM and 16.1 µM, the TGI (SN12C renal) was 28.9 µM and 31 µM and 29.6 µM and the GI50 (HOP-92 NSCLC) was 15.2 µM and 13.4 µM and 11.8 µM. For the same compound, the TGI (HOP-92 NSCLC) was 28.5 µM and 26.3 µM and 24.1 µM, the GI50 (UACC-257 melanoma) was 15.5 µM and 5.8 µM and 8.65 µM and the TGI (UACC-257 melanoma) was 28.9 µM and 18 µM and 20.8 µM. The GI50 (SW-620 colon) was 13.1 µM and 11 µM and 3.58 µM, the TGI (SW-620 colon) was 26 µM and 23.3 µM and 19.4 µM and the GI50 (NCI-H23 lung) was 14.5 µM and 15.1 µM. The TGI (NCI-H23 lung) was 27.6 µM and 28.5 µM, the TGI (UACC-62 melanoma) was 21.8 µM and 8.99 µM and 11.3 µM and the GI50 (NCI-H522 lung) was 14.1 µM and 15 µM and 14.8 µM. The TGI (NCI-H522 lung) was 27.1 µM and 28.3 µM and 28 µM, the GI50 ([…]-0 renal) was 14.7 µM and 14 µM and 11.2 µM and the TGI (786-0 renal) was 27.9 µM and 27.1 µM and 23.3 µM. For the same compound, the GI50 (NCI-H460 NSCLC) was 15.3 µM and 10.4 µM and 8.98 µM, the TGI (NCI-H460 NSCLC) was 28.9 µM and 22.5 µM and 21.3 µM and the GI50 (OVCAR-8 ovarian) was 15.6 µM and 11.9 µM and 10.5 µM. For the same compound, the TGI (OVCAR-8 ovarian) was 29.1 µM and 24.4 µM and 22.3 µM, the GI50 (HOP-62 NSCLC) was 15.6 µM and 2.36 µM and 5.46 µM and the TGI (HOP-62 NSCLC) was 29.1 µM and 19.6 µM and 20.5 µM. For the same compound, the GI50 (OVCAR-5 ovarian) was 16.9 µM and 17.6 µM and 16.7 µM and the TGI (OVCAR-5 ovarian) was 30.6 µM and 31.8 µM and 30.5 µM.
